Source: US20130266535A1, “METHYL SALICYLATE-BASED ATTRACTANTS FOR VECTORS OF CITRUS GREENING DISEASE” (priority 2012, published 2013)

Test system: Diaphorina citri
Test: Two-port T-olfactometer behavioral bioassay with synthetic chemicals vs. clean air (solvent-only wick)
Assay type: in vivo
Conditions: for Proportion of D. citri responding to treatment arm: non-infected female adults, treatment vs solvent control arm
Text: A custom designed two-port divided T-olfactometer [Analytical Research Systems (ARS), Inc. Gainesville, Fla.] that has been thoroughly described in [98] was used to evaluate behavioral response of D. citri. Briefly, the olfactometer consisted of a 30 cm long glass tube with 3.5 cm internal diameter that is bifurcated into two equal halves with a Teflon strip forming a T-maze. Each half served as an arm of the olfactometer enabling the D. citri to make a choice between two potential odor fields. The olfactometer arms were connected to odor sources placed in 35 cm tall×15 cm wide dome shaped guillotine volatile collection chambers (GVCC) (ARS, Gainesville, Fla.) through Teflon-glass tube connectors. The odor sources comprised 14-16 week old Las-infected or non-infected C. sinensis plants placed in GVCC. Purified and humidified air was pushed through the GVCC via two pumps connected to an air delivery system (ARS, Gainesville, Fla.). A constant airflow of 0.1 L/min was maintained through both arms of the olfactometer. The olfactometer was housed within a temperature-controlled room and positioned vertically under a fluorescent 900-lux light bulb within a fiberboard box for uniform light diffusion. This positioning took advantage of the negative geotactic and positive phototactic response of D. citri.
D. citri adults were released individually into the inlet adapter at the base of the olfactometer. An odor source was randomly assigned to one of the arms of the olfactometer at the beginning of each bioassay and was reversed after every 30 insects to eliminate positional bias. Initially, D. citri adults were exposed to clean air vs. clean air in the olfactometer to verify the absence of positional bias. Thereafter, the behavioral response of non-infected or Las-infected D. citri was tested against non-infected versus Las-infected plants. D. citri adults were also exposed to non-infected grafted (sham grafted) vs. non-grafted-non-infected plants to determine the effects of grafting only on D. citri behavior. For each treatment, C. sinensis plants were grafted with C. aurantifolia budwood four months prior to initiating behavioral experiments. A minimum of 150 male or female D. citri adults were examined per treatment combination (five replications of 30 D. citri). Each D. citri that responded to odors was individually subjected to qPCR to determine Las infection status using the procedures described above.
MeSA was released in greater quantities from Las-infected plants than non-infected plants, while MeAN and D-limonene were released in greater quantities by non-infected than infected plants (See results). Therefore, the behavioral response of D. citri to these synthetic chemicals was tested. A known D. citri attractant, β-ocimene, was used as a positive control. All chemicals were obtained from Sigma Aldrich (St Louis, Mo.) with purities ranging between 97 and 99%. Purity of β-ocimene was 90% and contained a mixture of isomers comprising 20-25% limonene. Each treatment was dissolved in 100 μl of dichloromethane and pipetted onto a 2 cm Richmond cotton wick (Petty John Packaging, Inc. Concord, N.C.) at 0.001, 0.01, 0.1, 1.0, 10.0 and 100.0 μg dosages. The control treatment consisted of a cotton wick impregnated with solvent only. The solvent from both treatments was allowed to evaporate within a fume hood for 30 min prior to assays. The bioassay procedures with synthetic chemicals were identical to those described earlier for plant samples. However, in this case, treatments (odor sources) were placed into solid phase micro extraction chambers (SPMEC) (ARS, Gainesville, Fla.) instead of the GVCC described above. The SPMEC consists of a straight glass tube (17.5 cm long×2.5 cm internal diameter) supported with an inlet and outlet valve for incoming and outgoing air streams, respectively. […]

SMILES | Behavioral response of D. citri (attraction/repulsion) (0.001 μg dosage) | Behavioral response of D. citri (attraction/repulsion) (100 μg dosage) | Proportion of D. citri responding to treatment arm (dosage 0.001 μg on cotton wick) | Proportion of D. citri responding to treatment arm (dosage 0.01 μg on cotton wick) | Proportion of D. citri responding to treatment arm (dosage 0.1 μg on cotton wick) | Proportion of D. citri responding to treatment arm (dosage 1.0 μg on cotton wick) | Proportion of D. citri responding to treatment arm (dosage 10.0 μg on cotton wick) | Proportion of D. citri responding to treatment arm (dosage 100.0 μg on cotton wick) | Behavioral response of D. citri (attraction/repulsion) (any of the dosages tested (0.001-100 μg)) | Behavioral response of D. citri (attraction/repulsion) (1-100 μg dosages)
COC(=O)c1ccccc1O [Methyl salicylate, methyl salicylate] | attracted | repelled | 54.00 | 60.44 | 54.76 | 45.12 | 41.03 | 39.56 | – | –
C=C(C)[C@H]1CC=C(C)CC1 [D-limonene] | – | attracted | 56.06 | 60.87 | 54.39 | 54.65 | 60.24 | 61.54 | – | –
COC(=O)c1ccccc1N [Methyl anthranilate, methyl anthranilate] | – | – | 58.06 | 57.14 | 61.76 | 57.33 | 56.10 | 52.27 | did not attract or repel | –
C=CC(C)=CCC=C(C)C [β-ocimene, reference compound] | – | – | 52.22 | 54.46 | 53.19 | 60.44 | 61.46 | 62.77 | – | attractive
